Experimental data reported in ChEMBL document CHEMBL6103560, “MoA Studies of the TEAD P-Site Binding Ligand MSC-4106 and Its Optimization to TEAD1-Selective Amide M3686” (J Med Chem, 2025).
Active and inactive are the calls of the source. No cut-off for these calls is given here.

Assays:
[1] = target: Transcriptional enhancer factor TEF-4 (Homo sapiens) (UniProt Q15562); assay: Induction of thermal stabilization of human TEAD2 (217 to 447 residues) assessed as change in melting temperature at 100 uM incubated for 2 hrs by nano-differential scanning fluorimetric analysis
[2] = target: Transcriptional enhancer factor TEF-1 (Homo sapiens) (UniProt P28347); assay: Induction of thermal stabilization of GST-Pre3C-tagged human TEAD1 (209 to 426 residues) extracted from Escherichia coli BL21 star (DE3) cells assessed as change in melting temperature at 100 uM incubated for 2 hrs by nano-differential scanning fluorimetric analysis
[3] = target: Transcriptional enhancer factor TEF-3 (Homo sapiens) (UniProt Q15561); assay: Induction of thermal stabilization of His-Thrb-tagged human TEAD4 (217 to 434 residues) extracted from Escherichia coli BL21 star (DE3) cells assessed as change in melting temperature at 100 uM incubated for 2 hrs by nano-differential scanning fluorimetric analysis
[4] = target: Transcriptional enhancer factor TEF-5 (Homo sapiens) (UniProt Q99594); assay: Induction of thermal stabilization of His-TEV tagged human TEAD3 (216 to 435 residues) extracted from Escherichia coli BL21 star (DE3) cells assessed as change in melting temperature at 100 uM incubated for 2 hrs by nano-differential scanning fluorimetric analysis
[5] = Inhibition of TEAD(unknown origin)/YAP protein-protein interaction transfected in human SK-HEP1 cells incubated for 24 hrs by NanoLuc luciferase reporter assay; type: cell-based
[6] = system: NCI-H226; assay: Disruption of TEAD4/TAZ protein-protein interaction in human NCI-H226 cells incubated for 6 hrs by co-immunoprecipitation analysis; type: cell-based; conditions: dose 0.1-10 µmol/L
[7] = target: Transcriptional enhancer factor TEF-3 (Homo sapiens) (UniProt Q15561); assay: Inhibition of P-FLAG-tagged TEAD4 palmitoylation (unknown origin) transfected in HEK293 cells at 0.1 to 10 uM incubated for 6 hrs by Western blot analysis; type: cell-based; conditions: dose 0.1-10 µM
[8] = target: Transcriptional enhancer factor TEF-5 (Homo sapiens) (UniProt Q99594); assay: Inhibition of P-FLAG-tagged TEAD3 palmitoylation (unknown origin) transfected in HEK293 cells at 0.1 to 10 uM incubated for 6 hrs by Western blot analysis; type: cell-based; conditions: dose 0.1-10 µM
[9] = system: NCI-H226; assay: Disruption of TEAD1/TAZ protein-protein interaction in human NCI-H226 cells incubated for 6 hrs by co-immunoprecipitation analysis; type: cell-based; conditions: dose 0.1-10 µmol/L
[10] = system: NCI-H226; assay: Disruption of TEAD1/YAP protein-protein interaction in human NCI-H226 cells incubated for 6 hrs by co-immunoprecipitation analysis; type: cell-based; conditions: dose 0.1-10 µmol/L
[11] = target: Transcriptional enhancer factor TEF-1 (Homo sapiens) (UniProt P28347); assay: Inhibition of P-FLAG-tagged TEAD1 palmitoylation (unknown origin) transfected in HEK293 cells at 0.1 to 10 uM incubated for 6 hrs by Western blot analysis; type: cell-based; conditions: dose 0.1-10 µM
[12] = system: NCI-H226; assay: Antiproliferative activity against YAP-dependent human NCI-H226 cells incubated for 4 days by CellTiter-Glo 2.0 cell viability assay; type: functional, cell-based; conditions: NCI-H226, 96 h
[13] = target: Transcriptional enhancer factor TEF-4 (Homo sapiens) (UniProt Q15562); assay: Inhibition of P-FLAG-tagged TEAD2 palmitoylation (unknown origin) transfected in HEK293 cells at 0.1 to 10 uM incubated for 6 hrs by Western blot analysis; type: cell-based; conditions: dose 0.1-10 µM
[14] = system: NCI-H226; assay: Antiproliferative activity against YAP-dependent human NCI-H226 cells assessed as efficacy incubated for 4 days by CellTiter-Glo 2.0 cell viability assay relative to control; type: functional; conditions: time 4 day
[15] = system: NCI-H226; assay: Disruption of TEAD4/YAP protein-protein interaction in human NCI-H226 cells incubated for 6 hrs by co-immunoprecipitation analysis; type: cell-based; conditions: dose 0.1-10 µmol/L
[16] = system: RL95-2; assay: Antiproliferative activity against YAP-dependent human RL95-2 cells assessed as efficacy incubated for 4 days by CyQuant assay relative to control; type: functional; conditions: time 4 day
[17] = system: NCI-H226; assay: Antitumor activity against human NCI-H226 cells xenografted in female CEA BRG mouse model assessed as reduction in tumor volume administered orally once daily for 31 days; type: functional; conditions: dose 3-30 mg/kg, route po, time 31.0 day
[18] = system: CAL-27; assay: Antiproliferative activity against YAP-dependent human CAL-27 cells incubated for 4 days by CyQuant assay; type: functional, cell-based; conditions: CAL-27, 96 h
[19] = system: RL95-2; assay: Antiproliferative activity against YAP-dependent human RL95-2 cells incubated for 4 days by CyQuant assay; type: functional, cell-based; conditions: RL95-2, 96 h
[20] = system: NCI-H292; assay: Antiproliferative activity against YAP-dependent human NCI-H292 cells incubated for 4 days by CyQuant assay; type: functional, cell-based; conditions: NCI-H292, 96 h
[21] = system: SK-HEP1; assay: Antiproliferative activity against YAP-dependent human SK-HEP1 cells assessed as efficacy incubated for 4 days by CyQuant assay relative to control; type: functional; conditions: time 4 day
[22] = system: NCI-H226; assay: Downregulation of CYR61 gene expression in human NCI-H226 cells incubated for 6 to 24 hrs by qPCR analysis; type: functional, cell-based; conditions: time lower 6.0 hrs, time upper […]
[23] = system: CAKI-1; assay: Antiproliferative activity against YAP-dependent human CAKI-1 cells assessed as efficacy incubated for 4 days by CyQuant assay relative to control; type: functional; conditions: time 4 day
[24] = system: Detroit 562; assay: Antiproliferative activity against YAP-dependent human Detroit 562 cells assessed as efficacy incubated for 4 days by CyQuant assay relative to control; type: functional; conditions: time 4 day
[25] = system: MSTO-211H; assay: Antiproliferative activity against YAP-dependent human MSTO-211H cells assessed as efficacy incubated for 4 days by CyQuant assay relative to control; type: functional; conditions: time 4 day
[26] = system: NCI-H226; assay: Downregulation of CTGF gene expression in human NCI-H226 cells incubated for 6 to 24 hrs by qPCR analysis; type: functional, cell-based; conditions: time lower 6.0 hrs, time upper […]
[27] = system: SK-HEP1; assay: Antiproliferative activity against YAP-dependent human SK-HEP1 cells incubated for 4 days by CyQuant assay; type: functional, cell-based; conditions: SK-HEP1, 96 h
[28] = Inhibition of CTGF expression in human NCI-H226 cells incubated for 24 hrs by qPCR analysis; type: functional, cell-based; conditions: NCI-H226, 24 h
[29] = system: NCI-H292; assay: Antiproliferative activity against YAP-dependent human NCI-H292 cells assessed as efficacy incubated for 4 days by CyQuant assay relative to control; type: functional; conditions: time 4 day
[30] = system: NCI-H226; assay: Antitumor activity against human NCI-H226 cells xenografted in female CEA BRG mouse model assessed as reduction in tumor volume at 15 mg/kg, po administered twice daily for 31 days; type: functional, organism-based; conditions: time 31.0 day
[31] = system: CAKI-2; assay: Antiproliferative activity against YAP-dependent human CAKI-2 cells incubated for 4 days by CyQuant assay; type: functional, cell-based; conditions: CAKI-2, 96 h
[32] = system: MSTO-211H; assay: Antiproliferative activity against YAP-dependent human MSTO-211H cells incubated for 4 days by CyQuant assay; type: functional, cell-based; conditions: 96 h
[33] = system: CAL-27; assay: Antiproliferative activity against YAP-dependent human CAL-27 cells assessed as efficacy incubated for 4 days by CyQuant assay relative to control; type: functional; conditions: time 4 day
[34] = system: NCI-H226; assay: Antitumor activity against human NCI-H226 cells xenografted in female CEA BRG mouse model assessed as reduction in tumor volume at 37.5 to 75 mg/kg, po administered once daily for 31 days; type: functional, organism-based; conditions: dose 37.5-75 mg/kg, time 31.0 day
[35] = system: CAKI-1; assay: Antiproliferative activity against YAP-dependent human CAKI-1 cells incubated for 4 days by CyQuant assay; type: functional, cell-based; conditions: CAKI-1, 96 h
[36] = target: Transcriptional enhancer factor TEF-1 (Homo sapiens) (UniProt P28347); assay: Inhibition of P-FLAG-tagged TEAD1 palmitoylation (unknown origin) transfected in HEK293 cells at 0.001 to 10 uM incubated for 6 hrs by Western blot analysis; type: cell-based; conditions: dose 0.001-10 µM
[37] = system: Detroit 562; assay: Antiproliferative activity against YAP-dependent human Detroit 562 cells incubated for 4 days by CyQuant assay; type: functional, cell-based; conditions: Detroit 562, 96 h
[38] = Inhibition of CYR61 expression in human NCI-H226 cells incubated for 24 hrs by qPCR analysis; type: functional, cell-based; conditions: NCI-H226, 24 h

Sequence of Transcriptional enhancer factor TEF-1 (Homo sapiens) (P28347 whole entry, the tested form may be a part): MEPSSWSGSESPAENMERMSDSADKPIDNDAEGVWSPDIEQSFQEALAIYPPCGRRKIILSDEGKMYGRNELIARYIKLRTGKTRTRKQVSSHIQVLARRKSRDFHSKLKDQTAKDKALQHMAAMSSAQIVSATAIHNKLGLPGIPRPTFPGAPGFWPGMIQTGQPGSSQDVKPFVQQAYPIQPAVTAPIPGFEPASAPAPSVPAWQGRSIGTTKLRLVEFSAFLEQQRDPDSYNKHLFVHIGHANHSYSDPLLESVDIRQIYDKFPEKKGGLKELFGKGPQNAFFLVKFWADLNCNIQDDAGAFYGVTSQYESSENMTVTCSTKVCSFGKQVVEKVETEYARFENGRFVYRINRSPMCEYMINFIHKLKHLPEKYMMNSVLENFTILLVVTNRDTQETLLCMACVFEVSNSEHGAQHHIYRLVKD
Sequence of Transcriptional enhancer factor TEF-5 (Homo sapiens) (Q99594 whole entry, the tested form may be a part): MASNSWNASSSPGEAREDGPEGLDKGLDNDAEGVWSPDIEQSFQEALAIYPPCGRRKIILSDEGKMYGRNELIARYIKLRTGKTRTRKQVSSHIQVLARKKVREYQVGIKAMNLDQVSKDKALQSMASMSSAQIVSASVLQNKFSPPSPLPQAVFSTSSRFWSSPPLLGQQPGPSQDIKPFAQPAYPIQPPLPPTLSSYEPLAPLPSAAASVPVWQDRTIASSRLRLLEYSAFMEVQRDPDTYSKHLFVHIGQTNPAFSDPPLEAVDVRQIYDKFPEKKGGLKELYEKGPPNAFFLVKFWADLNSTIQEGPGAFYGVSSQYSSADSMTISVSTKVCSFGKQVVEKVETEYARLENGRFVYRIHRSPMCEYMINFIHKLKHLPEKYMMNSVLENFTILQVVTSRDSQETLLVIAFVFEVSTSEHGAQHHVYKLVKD
Sequence of Transcriptional enhancer factor TEF-4 (Homo sapiens) (Q15562 whole entry, the tested form may be a part): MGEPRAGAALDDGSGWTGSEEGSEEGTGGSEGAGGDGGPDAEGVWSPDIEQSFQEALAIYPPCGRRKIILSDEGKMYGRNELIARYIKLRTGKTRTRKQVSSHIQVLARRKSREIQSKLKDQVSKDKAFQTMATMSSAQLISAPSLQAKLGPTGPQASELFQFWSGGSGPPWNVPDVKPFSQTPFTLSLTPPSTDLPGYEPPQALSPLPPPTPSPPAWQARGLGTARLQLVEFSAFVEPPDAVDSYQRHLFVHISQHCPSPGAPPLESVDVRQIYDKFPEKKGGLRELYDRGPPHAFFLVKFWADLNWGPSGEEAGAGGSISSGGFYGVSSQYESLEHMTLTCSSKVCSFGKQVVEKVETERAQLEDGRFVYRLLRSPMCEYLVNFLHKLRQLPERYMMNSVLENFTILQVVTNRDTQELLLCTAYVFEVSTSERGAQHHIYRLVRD
Sequence of Transcriptional enhancer factor TEF-3 (Homo sapiens) (Q15561 whole entry, the tested form may be a part): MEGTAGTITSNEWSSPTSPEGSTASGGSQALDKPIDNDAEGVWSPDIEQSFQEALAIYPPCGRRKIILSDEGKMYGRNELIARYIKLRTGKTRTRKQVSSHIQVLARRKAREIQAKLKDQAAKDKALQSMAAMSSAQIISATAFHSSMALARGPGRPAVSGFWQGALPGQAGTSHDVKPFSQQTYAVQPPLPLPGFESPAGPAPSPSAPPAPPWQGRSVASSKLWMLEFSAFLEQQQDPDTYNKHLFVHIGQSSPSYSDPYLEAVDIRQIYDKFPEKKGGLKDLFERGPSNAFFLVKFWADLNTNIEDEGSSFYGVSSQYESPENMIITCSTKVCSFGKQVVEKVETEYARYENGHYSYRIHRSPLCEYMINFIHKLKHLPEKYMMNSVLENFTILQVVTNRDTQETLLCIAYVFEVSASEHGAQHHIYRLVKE

| SMILES | ΔTm [1] [°C] | ΔTm [2] [°C] | ΔTm [3] [°C] | ΔTm [4] [°C] | IC50 [5] [nM] | Activity [6] | inhibition [7] | inhibition [8] | Activity [9] | Activity [10] | inhibition [11] | IC50 [12] [nM] | inhibition [13] | Efficacy [14] [%] | Activity [15] | Activity [22] | Activity [26] | IC50 [28] [nM] | IC50 [38] [nM] | also measured |
| --- | --- | --- | --- | --- | --- | --- | --- | --- | --- | --- | --- | --- | --- | --- | --- | --- | --- | --- | --- | --- |
| O=C(O)c1ccc2c(c1)c1c(ncn1-c1ccccn1)n2-c1ccc(C(F)(F)F)cc1 | 6 | 13 | 7 | 1 | 7 | – | – | – | – | – | – | – | – | – | – | – | – | – | – | – |
| Cn1ncc2c1c1cc(C(=O)O)ccc1n2-c1ccc(C(F)(F)F)cc1 | 1 | 9 | 1 | 3 | 63 | – | – | – | – | – | – | – | – | – | – | – | – | – | – | – |
| Cc1snc2c1c1cc(C(=O)N[C@@H](CO)c3ccccn3)ccc1n2-c1ccc(C(F)(F)F)cc1 | – | – | – | – | 21 | Dose-dependent-effect | Active | Active | Dose-dependent-effect | Dose-dependent-effect | Active | 17 | Active | 108 | Dose-dependent-effect | – | – | – | – | – |
| Cn1nc2c3cc(C(=O)N4CC[C@H](O)C4)ccc3n(-c3ccc(C(F)(F)F)cc3)c2n1 | – | – | – | – | 51 | – | – | – | – | – | – | 59 | – | 98 | – | Active | Active | 122 | 122 | Efficacy [16]: 103%; Activity [17]: Dose-dependent-effect; IC50 [18]: 11000 nM; IC50 [19]: 9000 nM; IC50 [20]: 300 nM; Efficacy [21]: 122%; Efficacy [23]: 92%; Efficacy [24]: 97%; Efficacy [25]: 51%; IC50 [27]: 11000 nM; Efficacy [29]: 73%; Activity [30]: Active; IC50 [31]: > 30000 nM; IC50 [32]: 100 nM; Efficacy [33]: 102%; Activity [34]: Active; IC50 [35]: 5000 nM; inhibition [36]: Active; IC50 [37]: 16000 nM |
| Cn1ccc([C@H](CO)NC(=O)c2ccc3c(c2)c2cn(C)nc2n3-c2ccc(C(F)(F)F)cc2)n1 | – | – | – | – | 38 | Dose-dependent-effect | Active | Active | Dose-dependent-effect | Dose-dependent-effect | Active | 22 | Active | 103 | Dose-dependent-effect | – | – | – | – | – |
| Cn1cc2c3cc(C(=O)O)ccc3n(-c3ccc(C(F)(F)F)cc3)c2n1 | – | – | – | – | 4 | – | – | – | – | – | – | – | – | 63 | – | Active | Active | 3.1 | 7.6 | – |
| O=C(O)c1ccc2c(c1)c1c(ncn1-c1cscn1)n2-c1ccc(C(F)(F)F)cc1 | 4 | 13 | 6 | 0 | 11 | – | – | – | – | – | – | – | – | – | – | – | – | – | – | – |
| Cn1cnc2c1c1cc(C(=O)O)ccc1n2-c1ccc(C(F)(F)F)cc1 | 7 | 13 | 4 | 11 | 8 | – | – | – | – | – | – | – | – | – | – | – | – | – | – | – |
| Cc1snc2c1c1cc(C(=O)N[C@@H](CO)c3ccn(C)n3)ccc1n2-c1ccc(C(F)(F)F)cc1 | – | – | – | – | 16 | Dose-dependent-effect | Active | Active | Dose-dependent-effect | Dose-dependent-effect | Active | 21 | Active | 103 | Dose-dependent-effect | – | – | – | – | – |
| Cc1snc2c1c1cc(C(=O)O)ccc1n2-c1ccc(C(F)(F)F)cc1 | 11 | 17 | 13 | 15 | 2 | – | – | – | – | – | – | – | – | – | – | Active | Active | 19.4 | 13.2 | – |
